Source: patent US11684614B2, “Formulations of hydroxypyridonate actinide/lanthanide decorporation agents” (priority 2017, dated 2023)

How the values were obtained:
[1] = Prototype oral formulation preparation and physico-chemical characterization (Example 2); assay type: physicochemical; settings: powder in bottle compositions
Experimental: Suitable formulation methodologies such as direct compression, dry compaction, and/or wet granulation processes were evaluated.
Powder in bottle (PIB) is one of the most convenient dosage form used in early stage clinical development because of its ease of use. In comparison with capsules, PIB can carry large dose and fill weights. […] The reason for evaluating each composition is also described. […] TABLE 2.14 describes the corresponding properties of the evaluated formulations.
TABLE 2.16 describes the corresponding properties of the evaluated formulations.
Chewable tablets are formulated for use in the mouth. They are usually uncoated, and are formulated to provide a release and absorption of the active ingredient(s) in the mouth/buccal cavity or from stomach. […] TABLE 2.18 describes the corresponding properties of the evaluated formulations.
Various compositions and processes (Direct compression & Wet granulation) were evaluated to formulate conventional tablets with 1000, 750 and/or 500 mg drug load. […]

[2] = Non-GLP 7-day repeat dose studies in beagle dogs, pharmacokinetics incl. iv group (SRI No. B677-13, M835-11); assay type: in vivo
From the text: These two pilot studies included an iv administration group so that oral bioavailability could be calculated. The oral bioavailability was low at <3% and essentially the same in both studies regardless of whether the dogs received formulated capsules or 3,4,3-L1(1,2-HOPO) dissolved in PBS without sodium oleate. […] Volume of distribution was 0.3 L/kg, consistent with drug that is distributed primarily to the extracellular space.

[3] = GLP single oral dose pharmacokinetic assessment in beagle dogs; assay type: in vivo
Experimental: Pharmacokinetic parameters in beagle dogs after a single oral administration of formulated capsules was determined in a GLP study. A validated bioanalytical method was used to determine the plasma concentration in 3 dogs/sex after capsule administration of 37.5, 75, and 150 mg/kg (50, 100, and 200 μmol/kg) of clinically formulated 3,4,3-L1(1,2-HOPO). […] Similarly, mean exposure, based on AUCinf, was 1979±777 hr·ng/ml and 4741 hr·ng/ml for low-dose males and females, respectively; 4317±1721 hr·ng/ml and 8610 hr·ng/ml for mid-dose males and females, respectively; and 12022±5458 hr·ng/ml and 8305±1607 hr·ng/ml for high-dose males and females, respectively. […] The mean t½ was consistently short across dose groups and ranged from 0.5 to 0.9 hr.

[4] = Plasma protein binding, dog; assay type: in vitro ADME; settings: tested at 10 μg/ml
Experimental: Plasma protein binding differed across species; it was greatest in dog (95%), intermediate in human (29%), and lowest in rat (5%) when tested at 10 μg/ml.

[5] = Radiolabeled in vivo ADME study in rats (with metabolite profiling); set-up: species or system Sprague Dawley rats
From the text: Formulated material was used in the single dose in vivo ADME characterization studies in Sprague Dawley rats and Swiss-Webster mice with 14C-labeled 3,4,3-L1(1,2-HOPO).
Pharmacokinetic parameters and disposition/biodistribution of 3,4,3-L1(1,2-HOPO) were characterized in vivo (with the aid of two 14C labels on the spermine backbone of the parent product) in two non-GLP studies using Swiss-Webster mice and Sprague Dawley rats. The study designs for these two studies are shown in TABLE 5.1 and TABLE 5.2, respectively. Groups of six mice (3 male, 3 female) were given a single dose of [14C]-3,4,3-L1(1,2-HOPO) via iv, ip, or po routes, respectively. An additional group of six mice (3 male, 3 female) were administered the 14C-labeled API with permeability enhancer (10% sodium oleate) by oral gavage (po). Similarly, groups of six rats (3 male, 3 female) were administered a single iv dose of the 14C-labeled API or a single po dose of the 14C-labeled API with 10% sodium oleate. In each of these studies, samples were collected at scheduled time points up to 24 hr post-dose and analyzed for 14C content using liquid scintillation counting. Blood, liver, kidney, feces and urine were collected and analyzed from the mice. Blood, brain, liver, kidney, lungs, spleen, skeletal muscle tissues, gastrointestinal (GI) tract samples, carcasses, feces, and urine were collected and analyzed from the rats.
The principal excretion routes of radioactivity from [14C]-3,4,3-L1(1,2-HOPO) were both the feces and urine after an iv dose based on high levels of radioactivity in both feces and urine as well as significant radioactivity in the excretory tissues, kidney, liver and GI tract. Fecal elimination by 24 hr post-dose accounted for approximately 62% and 16% of the iv administered dose in mice and rats, respectively. Urinary excretion accounted for approximately 12-23% of the iv administered dose in these rodents with renal excretion of 14C beginning as early as 5 min after iv injection in mice. In contrast, following oral administration, excretion was primarily by the fecal route accounting for approximately 89% and 41% of the orally administered dose in mice and rats, respectively, by 24 h post-dose. Urinary excretion accounted for <1% of the orally administered dose and low radioactivity levels were detected in systemic circulation and in tissues except for the GI tract. […] Based on the colonic transit time in rats of 15.5 hr, 11 the radioactivity found in the feces in the first 24 hr after po administration is most likely unabsorbed compound. […] Metabolite profiling of [14C]-3,4,3-L1(1,2-HOPO) was performed using an HPLC method on selected urine, feces, kidney, liver, and lung samples from the Sprague Dawley rat. Only samples containing the highest total radioactive levels were selected for analysis. A total of 11 peaks were detected, of which 6 were from uncharacterized interactions between the test article and matrix components because they were also seen in spiked blank matrix controls. These 6 peaks are not metabolites and are considered alternate forms of the parent compound (e.g. complexes of the test article with metallic ions). The 5 other radioactive species (peaks P1-P4 and P10) are considered potential metabolites. Feces-specific metabolite peaks P2, P3, and P10 represented a combined 10.5-11.4% and 0.5-4.2% of the administered dose after po or iv administration, respectively, in rats. Peak P10 was the most abundant peak in all samples analyzed. It represented up to 10% of the administered dose in feces after po administration while the other two feces-specific peaks represented <1% of the administered dose after po administration. Peak P10 was also the predominant, and sometimes the only, peak in feces samples after iv administration. […]

O=C(NCCCN(CCCCN(CCCNC(=O)c1cccc(=O)n1O)C(=O)c1cccc(=O)n1O)C(=O)c1cccc(=O)n1O)c1cccc(=O)n1O [3,4,3-L1(1,2-HOPO)]
behavior when reconstituted in water [1]: formed a sticky mass | accumulation in the plasma ([2]; after 7 days of dosing): did not accumulate in the plasma | oral bioavailability ([2]; formulated capsules or API in PBS without sodium oleate): < 3% | Volume of distribution ([2]; iv 37.6 mg/kg (50 μmol/kg)): 0.3 L/kg | clearance (Cl) ([2]; iv 37.6 mg/kg (50 μmol/kg)): 9.9 mL/min/kg | mean AUCinf ([2]; iv 37.6 mg/kg (50 μmol/kg)): 64000 ng·h/mL | observed peak plasma level ([2]; iv 37.6 mg/kg (50 μmol/kg)): 115 ± 11 µg/mL | t½ ([2]; iv 37.6 mg/kg (50 μmol/kg)): 24 min | mean AUCinf ([3]; high-dose (150 mg/kg) females): 8305 ± 1607 ng·h/mL | mean AUCinf ([3]; high-dose (150 mg/kg) males): 12022 ± 5458 ng·h/mL | mean Cmax and AUCinf, females compared with males ([3]; low and mid doses): 1.7- to 2.4 fold | mean AUCinf ([3]; low-dose (37.5 mg/kg) females): 4741 ng·h/mL | mean AUCinf ([3]; low-dose (37.5 mg/kg) males): 1979 ± 777 ng·h/mL | mean AUCinf ([3]; mid-dose (75 mg/kg) females): 8610 ng·h/mL | mean AUCinf ([3]; mid-dose (75 mg/kg) males): 4317 ± 1721 ng·h/mL | mean t½ ([3]; oral, across dose groups, dogs): 30 to 54 min | Tmax ([3]; single oral capsule dose, 37.5, 75, and 150 mg/kg, dogs): 36 to 66 min | Plasma protein binding [4]: 95% | oral bioavailability (F) of radioactive compound ([5]; female rats): 1.1% | oral bioavailability (F) of radioactive compound ([5]; male rats): 0.4% | mean t½ ([5]; oral administration, rats): ~60 min | Tmax ([5]; oral dose, rodents (rats)): ~42 min
